Results reported in ChEMBL document CHEMBL1138756, “Entry into a new class of potent proteasome inhibitors having high antiproliferative activity by structure-based design” (J Med Chem, 2004).

Legend:
[1] = tested on: Proteasome; experiment: Inhibition of post glutamyl l-peptide (PGPH) proteolytic activity of purified human proteasome
[2] = tested on: Proteasome; experiment: Inhibition of chymotrypsin-like proteolytic activity of purified human proteasome in cultured MDA-MB 435 Cells; type: subcellular
[3] = tested on: Proteasome; experiment: Inhibition of trypsin-like proteolytic activity of purified human proteasome; type: subcellular
[4] = tested on: Proteasome; experiment: Inhibition of chymotrypsin-like proteolytic activity of purified human proteasome; type: subcellular
[5] = tested on: MDA-MB-435; experiment: Inhibition of MDA-MB 435 cell proliferation; type: functional, cell-based; details: Homo sapiens

| Structure (SMILES) | IC50 [1] | IC50 [2] | IC50 [3] | IC50 [4] | IC50 [5] |
| --- | --- | --- | --- | --- | --- |
| COc1ccc(CNC(=O)[C@@H](NC(=O)[C@H](Cc2cc(OC)c(OC)c(OC)c2)NC(=O)Cc2cccc(Oc3ccccc3)c2)C(C)C)c(O)c1 | > 20000 nM | 20 nM | > 20000 nM | 10 nM | 60 nM |
| COc1ccc(CNC(=O)[C@@H](NC(=O)[C@H](Cc2ccc(OC)c(OC)c2)NC(=O)Cc2ccccc2)C(C)C)c(O)c1 |  |  |  | 1000 nM |  |
| COc1ccc(CNC(=O)[C@@H](NC(=O)[C@H](Cc2ccc(OC)c(OC)c2)NC(=O)Cc2cccc(Oc3ccccc3)c2)C(C)C)c(O)c1 | > 20000 nM |  | > 20000 nM | 60 nM | 900 nM |
| COc1ccc(CN[C@@H](C(=O)N[C@H](C(=O)NCc2ccc(OC)cc2O)C(C)C)[C@H](O)[C@H](Cc2ccccc2)NC(=O)[C@@H](NC(=O)OCc2ccccc2)C(C)(C)C)cc1 | > 20000 nM |  | > 20000 nM | 900 nM |  |
| COc1ccc(CNC(=O)[C@@H](NC(=O)[C@H](NCc2cc(OC)c(OC)c(OC)c2)[C@H](O)[C@H](Cc2ccccc2)NC(=O)[C@@H](NC(=O)Cc2cccc3ccccc23)C(C)(C)C)C(C)C)c(O)c1 | > 20000 nM |  | > 20000 nM | 7 nM | 1500 nM |
